# Data as given in patent publication US10556929B2, “Cytotoxic T lymphocyte inducing immunogens for prevention treatment and diagnosis of dengue virus infection” (Emergex Vaccines Holdings Limited, priority 2011, dated 2020).
# Experiments:
# Format in all cases: cell-based, human
# [1] = tested on: HepG2 cells infected with DV1-4 Thai isolates; test: IFN-γ ELISpot, CTL vs HepG2 cells infected with DV1-4 Thai isolates; settings: HepG2 infected with DV1-4 Thai isolates, FIG. 4C-F
# Method: (§1) Dengue virus serotype 2 (DV2) (strain-16681), as well as DV type 3 (DV3) (strain-16562), were propagated in Vero cells and collected at 4 days post infection (dpi). Titer was determined using a plaque assay in Vero cells. Thai isolates of all four DV serotypes were propagated. All infections were carried out at five MOI for lhr, after which, virus was removed and cells were incubated for additional 48-72 hrs.
# (§2) Heparinized blood from healthy HLA-A2+ donors was purchased from Research Blood Components, LLC (Brighton, Mass.). Peripheral blood mononuclear cells (PBMC) were purified using differential centrifugation following standard methods. PBMC were used to generate peptide specific CTL as described previously (James S. Testa, et al. J Infect Dis 205(4): 647-655. (2012)).
# (§3) Antigen stimulated interferon-γ (IFN-γ) release as a measure of CTL activation was assayed using an ELISPOT assay kit (BD-Pharmingen, San Jose, Calif.) according to the manufacturer's instructions. Results are presented as the number of interferon-γ producing cells per 1E6 PBMCs. Each assay was performed with PBMC from at least three different healthy HLA-A2+ donors. Error bars represent SEM of experimental replicates.
# (§4) We tested CTLs generated against the 4 epitopes using targets infected with all four DV serotypes. We infected HepG2 cells (FIG. 4A) or JY cells (FIG. 4B) with DV1-4 Thai isolates and verified protein expression. […] In addition to HepG2 cells, we also tested professional APC JY cells, as targets.
# [2] = tested on: T2 cells loaded with the corresponding synthetic peptide; test: IFN-γ ELISpot, CTL vs peptide-pulsed T2 cells; settings: CTL from HLA-A2+ healthy donor PBMC generated with synthetic peptide, overnight ELISpot, FIG. 3A-D
# Method: as §2, §3
# In order to characterize the functionality of the identified DV epitopes, we generated cytotoxic T cells from HLA-A2+ healthy donors using synthetic peptides corresponding to the identified epitopes. The cultures were tested in overnight ELISpot assays to measure IFNγ release from activated CTLs. […] Next, to confirm CTL activation against DV-infected targets, JY and HepG2 cells were infected with both DV2 and DV3 virus and used as targets in CTL ELISpot assays. […] In addition, K562 cells, a known NK cell target, were used as targets to measure non-specific IFNγ secretion.
# [3] = tested on: JY cells infected with DV1-4 Thai isolates; test: IFN-γ ELISpot, CTL vs JY cells infected with DV1-4 Thai isolates; settings: JY infected with DV1-4 Thai isolates, FIG. 4G-J
# Method: as §1, §2, §3, §4
# [4] = tested on: JY and HepG2 cells infected with DV2 and DV3 virus; test: IFN-γ ELISpot, CTL vs DV2/DV3-infected JY and HepG2 cells; settings: FIG. 3E-F
# Method: as §1, §2, §3
# In order to characterize the functionality of the identified DV epitopes, we generated cytotoxic T cells from HLA-A2+ healthy donors using synthetic peptides corresponding to the identified epitopes. […]
Sequence,activation of epitope-specific CTL against infected HepG2 targets [1],recognition of peptide-loaded targets by peptide-specific CTL (IFNγ release) [2],DV serotypes of infected targets recognized by peptide-specific CTL [3],activation of peptide-specific CTL by infected JY targets [3],CTL activation (IFNγ secretion) against DV-infected targets [4]
KLAEAIFKL (listed as Homo sapiens) [P1-KLA],"activated against all four serotypes, although not to the same degree",recognize T2 cells loaded with the corresponding synthetic peptide,recognized only DV2-infected targets,most infected targets activate peptide-specific CTL,–
NIQTAINQV (listed as Homo sapiens) [P4-NIQ],"activated against all four serotypes, although not to the same degree",recognize T2 cells loaded with the corresponding synthetic peptide,–,most infected targets activate peptide-specific CTL,–
TITEEIAVQ (listed as Homo sapiens) [P3-TIT],"activated against all four serotypes, although not to the same degree",recognize T2 cells loaded with the corresponding synthetic peptide,–,most infected targets activate peptide-specific CTL,all DV-infected cells activated CTL to secrete IFNγ
VTLLCLIPTV (listed as Homo sapiens) [P2-VTL],"activated against all four serotypes, although not to the same degree",recognize T2 cells loaded with the corresponding synthetic peptide,recognized only DV2-infected targets,most infected targets activate peptide-specific CTL,all DV-infected cells activated CTL to secrete IFNγ
